Data from ChEMBL document CHEMBL4725417, “Membrane Permeable, Bioreversibly Modified Prodrugs of Nucleoside Diphosphate-γ-Phosphonates” (J Med Chem, 2020).
pEC50: −log10 of the molar value. Activity calls are given as the source filed them. No cut-off for these calls is given here.

Assays:
[1] = Cytotoxicity in human CEM cells assessed as reduction in cell proliferation; format: cell-based; details: CEM cells (CCRF-CEM)
[2] = molecular target: DNA polymerase beta (Homo sapiens) (UniProt P06746); assay: Substrate activity at human DNA polymerase beta incubated at 37 degC for 60 mins and at 80 degC for 7 mins by primer extension assay; details: time 67.0 min
[3] = molecular target: T1, DNA polymerase alpha catalytic subunit (Homo sapiens) (UniProt P09884); assay: Substrate activity at human DNA polymerase alpha incubated at 37 degC for 60 mins and at 80 degC for 7 mins by primer extension assay; details: time 67.0 min
T1 sequence (whole entry): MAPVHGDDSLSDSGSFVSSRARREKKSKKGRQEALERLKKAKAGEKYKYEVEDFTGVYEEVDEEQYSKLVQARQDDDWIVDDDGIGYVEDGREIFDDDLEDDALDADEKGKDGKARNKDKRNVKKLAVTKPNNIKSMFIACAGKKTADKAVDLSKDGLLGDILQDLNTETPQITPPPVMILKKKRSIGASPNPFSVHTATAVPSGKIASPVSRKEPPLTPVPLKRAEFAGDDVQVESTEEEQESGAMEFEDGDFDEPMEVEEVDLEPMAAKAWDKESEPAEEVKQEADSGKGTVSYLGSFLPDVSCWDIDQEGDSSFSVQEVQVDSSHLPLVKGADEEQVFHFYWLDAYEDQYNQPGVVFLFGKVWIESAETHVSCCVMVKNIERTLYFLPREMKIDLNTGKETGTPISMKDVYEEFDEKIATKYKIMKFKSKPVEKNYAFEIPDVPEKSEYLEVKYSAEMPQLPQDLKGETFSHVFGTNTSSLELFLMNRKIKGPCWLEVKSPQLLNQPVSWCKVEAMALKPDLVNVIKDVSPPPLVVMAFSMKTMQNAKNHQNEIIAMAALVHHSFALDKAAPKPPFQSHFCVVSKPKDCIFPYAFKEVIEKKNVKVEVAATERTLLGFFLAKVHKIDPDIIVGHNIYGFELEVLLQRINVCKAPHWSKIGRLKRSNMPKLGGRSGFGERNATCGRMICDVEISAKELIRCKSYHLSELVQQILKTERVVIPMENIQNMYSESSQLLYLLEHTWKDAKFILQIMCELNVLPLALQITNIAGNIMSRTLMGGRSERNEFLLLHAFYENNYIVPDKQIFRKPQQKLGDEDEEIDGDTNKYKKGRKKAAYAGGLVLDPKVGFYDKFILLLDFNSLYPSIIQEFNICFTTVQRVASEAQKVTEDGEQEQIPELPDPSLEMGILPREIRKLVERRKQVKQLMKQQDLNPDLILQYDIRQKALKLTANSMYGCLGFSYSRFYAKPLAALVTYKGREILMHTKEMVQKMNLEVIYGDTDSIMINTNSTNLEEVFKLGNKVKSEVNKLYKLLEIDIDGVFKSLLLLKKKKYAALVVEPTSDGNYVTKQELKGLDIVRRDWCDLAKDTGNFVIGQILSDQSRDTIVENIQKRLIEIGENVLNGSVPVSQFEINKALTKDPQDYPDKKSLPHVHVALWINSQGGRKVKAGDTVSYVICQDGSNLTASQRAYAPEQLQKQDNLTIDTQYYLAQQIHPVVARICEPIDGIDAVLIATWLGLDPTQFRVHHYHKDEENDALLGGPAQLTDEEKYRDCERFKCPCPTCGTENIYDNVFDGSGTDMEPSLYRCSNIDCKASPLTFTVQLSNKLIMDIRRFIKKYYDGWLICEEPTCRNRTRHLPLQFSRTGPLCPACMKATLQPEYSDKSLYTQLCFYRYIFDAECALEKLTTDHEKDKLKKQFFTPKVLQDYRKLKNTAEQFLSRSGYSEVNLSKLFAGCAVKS

[4] = species on record: Homo sapiens; assay: Substrate activity at human DNA polymerase gamma incubated at 37 degC for 60 mins and at 80 degC for 7 mins by primer extension assay; details: time 67.0 min
[5] = Half life in pH 7.3 PBS buffer at 1.4 mM by HPLC analysis; format: physicochemical
[6] = Half life in human CEM/0 cell extracts at 6 mM by HPLC analysis; format: ADME, tissue-based, CCRF-CEM
[7] = Half life assessed as pig liver esterase-mediated compound hydrolysis at 6 mM by HPLC analysis; format: ADME, Sus scrofa
[8] = system: Human immunodeficiency virus 1; assay: Antiviral activity against HIV1 3B infected in human CEM/0 CD4+ T cells assessed as reduction in virus-induced cytopathogenicity by measuring syncytia cell formation incubated for 4 to 5 days by microscopy; format: functional, organism-based; details: Human immunodeficiency virus 1, 3B, CCRF-CEM
[9] = system: Human immunodeficiency virus 2; assay: Antiviral activity against HIV2 ROD infected in human CEM/0 CD4+ T cells assessed as reduction in virus-induced cytopathogenicity by measuring syncytia cell formation incubated for 4 to 5 days by microscopy; details: Human immunodeficiency virus 2, ISOLATE ROD, CCRF-CEM
[10] = system: Human immunodeficiency virus 2; assay: Antiviral activity against HIV2 ROD infected in human TK-deficient CEM/TK- T-cells assessed as reduction in virus-induced cytopathogenicity by measuring syncytia cell formation incubated for 4 to 5 days by microscopy; details: Human immunodeficiency virus 2, ISOLATE ROD
[11] = molecular target: Human immunodeficiency virus type 1 reverse transcriptase (Human immunodeficiency virus 1) (UniProt Q72547); assay: Substrate activity at HIV1 reverse transcriptase incubated at 37 degC for 30 mins and at 80 degC for 7 mins by primer extension assay; details: time 37.0 min

SMILES	CC50 [1] [nM]	Activity [2]	Activity [3]	Activity [4]	half-life at 1400 µM [5] [days]	half-life at 6000 µM [6] [h]	half-life at 6000 µM [7] [h]	pEC50 [8]	pEC50 [9]	pEC50 [10]	Activity [11]
Cc1cn([C@H]2C=C[C@@H](CO)O2)c(=O)[nH]c1=O [STAVUDINE]	> 50000	Active	inactive	inactive	–	–	–	–	–	–	–
CCCCCCCCCCCCP(=O)(OCc1ccc(OC(C)=O)cc1)OP(=O)(O)OP(=O)(O)OC[C@@H]1C=C[C@H](n2cc(C)c(=O)[nH]c2=O)O1.N.N (stereo not given in full)	> 100000	–	–	–	4.29	0.043	0.46	7.64	7.68	4.58	–
CCCCCCCCCCCCP(=O)(OCCC#N)OP(=O)(O)OP(=O)(O)OC[C@@H]1C=C[C@H](n2cc(C)c(=O)[nH]c2=O)O1.N.N (stereo not given in full)	> 100000	–	–	–	6.17	> 15	> 80	6.68	7.06	4.68	–
CCCCCCCCCCCCCCP(=O)(OCc1ccc(OC(=O)CCCC)cc1)OP(=O)(O)OP(=O)(O)OC[C@@H]1C=C[C@H](n2cc(C)c(=O)[nH]c2=O)O1.N.N (stereo not given in full)	56000	–	–	–	21.2	4.5	0.081	7.51	6.80	6.28	–
CCCCCCCCCCCCP(=O)(OCc1ccc(OC(=O)CCCCCCCCCCC)cc1)OP(=O)(O)OP(=O)(O)OC[C@@H]1C=C[C@H](n2cc(C)c(=O)[nH]c2=O)O1.N.N (stereo not given in full)	37000	–	–	–	38.3	> 8	0.917	8.13	7.04	7.18	–
CCCCCCCCCCCCP(=O)(OCc1ccc(OC(=O)OC)cc1)OP(=O)(O)OP(=O)(O)OC[C@@H]1C=C[C@H](n2cc(C)c(=O)[nH]c2=O)O1.N.N (stereo not given in full)	> 100000	–	–	–	5.12	0.65	0.7	7.02	6.46	4.43	–
CCCCCCCCCCCCP(=O)(O)OP(=O)(O)OP(=O)(O)OC[C@@H]1C=C[C@H](n2cc(C)c(=O)[nH]c2=O)O1.N.N.N	> 100000	inactive	inactive	inactive	> 125	> 30	> 150	6.82	6.77	4.39	Active
CCCCCCCCCCCCCCCCCCP(=O)(OCCC#N)OP(=O)(O)OP(=O)(O)OC[C@@H]1C=C[C@H](n2cc(C)c(=O)[nH]c2=O)O1.N.N (stereo not given in full)	38000	–	–	–	20	> 10	> 150	7.02	7.34	6.85	–
CCCCCCCCCCCCCCP(=O)(OCc1ccc(OC(=O)OCCCC)cc1)OP(=O)(O)OP(=O)(O)OC[C@@H]1C=C[C@H](n2cc(C)c(=O)[nH]c2=O)O1.N.N (stereo not given in full)	32000	–	–	–	21.6	64	0.032	6.92	6.66	5.75	–
CCCCCCCCCCCCP(=O)(OCc1ccc(OC(=O)OCCCCCCCCCCC)cc1)OP(=O)(O)OP(=O)(O)OC[C@@H]1C=C[C@H](n2cc(C)c(=O)[nH]c2=O)O1.N.N (stereo not given in full)	39000	–	–	–	47.9	> 10	10.6	7.40	6.96	6.49	–
CCCCCCCCCCCCP(=O)(OCc1ccc(OC(=O)OCCCC)cc1)OP(=O)(O)OP(=O)(O)OC[C@@H]1C=C[C@H](n2cc(C)c(=O)[nH]c2=O)O1.N.N (stereo not given in full)	38000	–	–	–	14.4	4.3	0.009	7.01	6.70	5.00	–
CCCCCCCCCCCCCCCCCCP(=O)(OCc1ccc(OC(=O)OCCCC)cc1)OP(=O)(O)OP(=O)(O)OC[C@@H]1C=C[C@H](n2cc(C)c(=O)[nH]c2=O)O1.N.N (stereo not given in full)	16000	–	–	–	51.7	> 10	1.04	8.74	7.59	7.49	–
CCCCCCCCCCCCCCCCCCP(=O)(OCc1ccc(OC(=O)CCCC)cc1)OP(=O)(O)OP(=O)(O)OC[C@@H]1C=C[C@H](n2cc(C)c(=O)[nH]c2=O)O1.N.N (stereo not given in full)	19000	–	–	–	26.9	6.7	2	8.13	7.68	7.38	–
CCCCCCCCCCCCP(=O)(OCc1ccc(OC(=O)CCCC)cc1)OP(=O)(O)OP(=O)(O)OC[C@@H]1C=C[C@H](n2cc(C)c(=O)[nH]c2=O)O1.N.N (stereo not given in full)	86000	–	–	–	8.96	0.81	0.013	7.19	7.60	5.46	–
CCCCCCCCCCCCCCCCCCP(=O)(O)OP(=O)(O)OP(=O)(O)OC[C@@H]1C=C[C@H](n2cc(C)c(=O)[nH]c2=O)O1.N.N.N	21000	inactive	inactive	inactive	22.3	> 30	> 80	7.34	6.96	5.80	inactive
